Laboratory results taken from ChEMBL document CHEMBL1128765, “Growth inhibitory effect of naphthofuran and naphthofuranquinone derivatives on Trypanosoma cruzi epimastigotes” (Bioorg Med Chem Lett, 1995).

Experiments:
Trypanosoma cruzi [1] = experiment: In vitro antitrypanosomal activity against Trypanosoma cruzi epimastigote, CL strain; type: functional, organism-based
Trypanosoma cruzi [2] = experiment: Percent inhibition of growth against Trypanosoma cruzi epimastigotes, Y strain at concentration 4 ug/ml (13-17 uM); type: functional; conditions: read-out: GI
Trypanosoma cruzi [3] = experiment: In vitro for antitrypanosomal activity against Trypanosoma cruzi epimastigote, SC-28 strain; type: functional, organism-based
Trypanosoma cruzi [4] = experiment: In vitro for antitrypanosomal activity against Trypanosoma cruzi epimastigote, Ystrain; type: functional, organism-based

| IC50 (Trypanosoma cruzi [1]) | IC50 (Trypanosoma cruzi [3]) | IC50 (Trypanosoma cruzi [4]) | Structure (SMILES) | inhibition of growth at 4 µg/mL (Trypanosoma cruzi [2]) |
| --- | --- | --- | --- | --- |
| 2650 nM | 3050 nM | 2820 nM | COc1ccc2c(c1)C(=O)c1cc(C(C)O)oc1C2=O (configuration not stated) | 100% |
|  |  |  | COc1ccc2c(c1OC)C(=O)c1occc1C2=O | 25% |
| 530 nM | 570 nM | 490 nM | COc1ccc2c(c1)C(=O)c1oc(C(C)=O)cc1C2=O | 100% |
|  |  |  | COc1ccc(C(=O)O)c(Cc2ccco2)c1 | 0% |
| 1860 nM | 2170 nM | 1920 nM | COc1ccc2c(OC(C)=O)c3cc(C(C)=O)oc3cc2c1 | 100% |
|  |  |  | COc1ccc2c(c1OC)C(=O)c1oc(C(C)O)cc1C2=O (configuration not stated) | 22% |
|  |  |  | COc1ccc2c(c1)C(c1ccc(C(C)=O)o1)OC2=O (configuration not stated) | 17% |
|  |  |  | COc1ccc2c(c1)C(c1ccco1)OC2=O (configuration not stated) | 18% |
| 2550 nM | 2800 nM | 3020 nM | O=C1C(=O)c2ccoc2-c2ccccc21 | 100% |
|  |  |  | COc1ccc2c(c1OC)C(=O)c1ccoc1C2=O | 45% |
|  |  |  | COc1ccc2c(c1OC)C(=O)c1oc(C(C)=O)cc1C2=O | 45% |
|  |  |  | COc1cccc2c1C(c1ccco1)OC2=O (configuration not stated) | 19% |

| Structure (SMILES) | IC50 (Trypanosoma cruzi [1]) | IC50 (Trypanosoma cruzi [3]) | IC50 (Trypanosoma cruzi [4]) | inhibition of growth at 4 µg/mL (Trypanosoma cruzi [2]) |
| --- | --- | --- | --- | --- |
| O=C(Cn1ccnc1[N+](=O)[O-])NCc1ccccc1 [BENZNIDAZOLE] | 8950 nM | 8970 nM | 8050 nM | 100% |
| CC1CS(=O)(=O)CCN1/N=C/c1ccc([N+](=O)[O-])o1 (configuration not stated) [NIFURTIMOX] | 3810 nM | 3550 nM | 3290 nM | 100% |
